# Laboratory results: patent US8304446B2, “Compounds” (Glaxo Group Limited, priority 2009, dated 2012)
# Counter-ions that a name gives are not always drawn.
# Target: T1, CCR4 (Homo sapiens, UniProt P51679)
# T1 construct: expressed in transfected cells; host or cells: CHO cell membranes
# T1 sequence (P51679 1-360): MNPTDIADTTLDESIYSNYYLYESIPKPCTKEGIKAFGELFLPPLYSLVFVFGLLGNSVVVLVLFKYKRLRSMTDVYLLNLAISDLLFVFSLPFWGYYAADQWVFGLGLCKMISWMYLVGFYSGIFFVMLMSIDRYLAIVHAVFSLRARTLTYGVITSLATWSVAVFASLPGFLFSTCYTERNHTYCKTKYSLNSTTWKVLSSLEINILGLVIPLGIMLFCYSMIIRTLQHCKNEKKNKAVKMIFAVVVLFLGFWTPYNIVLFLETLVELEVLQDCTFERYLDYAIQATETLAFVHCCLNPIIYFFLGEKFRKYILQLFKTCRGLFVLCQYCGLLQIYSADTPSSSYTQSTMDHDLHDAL
# Assay: [35S]-GTPγS SPA binding assay for CCR4 antagonist activity
# Format: biochemical
# Conditions: CCR4 expressing CHO membranes; human MDC at EC80; [35S]-GTPγS competition
# Experimental: [35S]-GTPγS SPA Binding Assays for CCR4 Antagonist Activity
# Antagonist potency was determined by a radioligand [35S]-GTPγS competition assay. Briefly, CCR4 expressing CHO membranes were homogenised by passing through a 23G needle. These membranes were then adhered to WGA-coated Leadseeker SPA beads in assay buffer (20 mM HEPES, 10 mM MgCl2, 100 mM NaCl, 0.05% BSA, 40 ug/ml Saponin and pH adjusted to 7.4 using KOH 5M) to generate a 3 μg/well final assay concentration (FAC) membrane and 250 μg/well FAC bead, solution.
# The bead/membrane/[35S]-GTPγS/Agonist suspension was dispensed into white Greiner polypropylene 384-well plates (45 μl/well), containing 0.5 μl of compound. […] Plates were then read on a Viewlux instrument and luminescence was then plotted as a percentage of the maximum inhibitional response elicited by an IC100 of a standard antagonist.
row,IC50 [nM],Structure (SMILES)
1,3.98 to 15.8,"COc1cccc2c1c(NS(=O)(=O)c1ccc(Cl)s1)nn2Cc1cccc(CNC(=O)C[C@H](N)C(=O)O)c1 [Example 80, N^4-[(3-{[3-{[(5-Chloro-2-thienyl)sulfonyl]amino}-4-(methyloxy)-1H-indazol-1-yl]methyl}phenyl)methyl]-L-asparagine trifluoroacetate]"
2,3.98 to 15.8,"CNCC(=O)NCc1cccc(Cn2nc(NS(=O)(=O)c3ccc(Cl)s3)c3c(OC)cccc32)c1 [Example 85, N^1-[(3-{[3-{[(5-Chloro-2-thienyl)sulfonyl]amino}-4-(methyloxy)-1H-indazol-1-yl]methyl}phenyl)methyl]-N^2-methylglycinamide trifluoroacetate]"
3,3.98 to 15.8,"COc1cccc2c1c(NS(=O)(=O)c1ccc(Cl)s1)nn2Cc1cccc(CNC(=O)[C@@H](N)CO)c1 [Example 102, N^1-[(3-{[3-{[(5-Chloro-2-thienyl)sulfonyl]amino}-4-(methyloxy)-1H-indazol-1-yl]methyl}phenyl)methyl]-L-serinamide]"
4,3.98 to 15.8,"COc1cccc2c1c(NS(=O)(=O)c1ccc(Cl)s1)nn2Cc1cccc(CNC(=O)[C@@H](N)Cc2c[nH]c3ccccc23)c1 [Example 114, N-[(3-{[3-{[(5-Chloro-2-thienyl)sulfonyl]amino}-4-(methyloxy)-1H-indazol-1-yl]methyl}phenyl)methyl]-L-tryptophanamide]"
5,100 to 398,"COc1cccc2c1c(NS(=O)(=O)c1cccs1)nn2Cc1cccc(CNC(C)=O)c1 [Example 116, N-{[3-({4-(Methyloxy)-3-[(2-thienylsulfonyl)amino]-1H-indazol-1-yl}methyl)phenyl]methyl}acetamide]"
6,100 to 398,"COc1cccc2c1c(NS(=O)(=O)c1ccc(C)s1)nn2Cc1ccc(CNC(=O)[C@H]2COCCN2)cc1 [Example 120, (3R)—N-({4-[(4-(methyloxy)-3-{[(5-methyl-2-thienyl)sulfonyl]amino}-1H-indazol-1-yl)methyl]phenyl}methyl)-3-morpholinecarboxamide trifluoroacetate]"
7,3.98 to 15.8,"COc1cccc2c1c(NS(=O)(=O)c1ccc(Cl)s1)nn2Cc1cccc(CNC(=O)C(C)(C)N)c1 [Example 127, N^1-[(3-{[3-{[(5-Chloro-2-thienyl)sulfonyl]amino}-4-(methyloxy)-1H-indazol-1-yl]methyl}phenyl)methyl]-2-methylalaninamide]"
8,3.98 to 15.8,"COc1cc(F)cc2c1c(NS(=O)(=O)c1ccc(Cl)s1)nn2Cc1cccc(CNC(=O)C2COCCN2C)c1 (centres unmarked) [Example 133, N-[(3-{[3-{[(5-Chloro-2-thienyl)sulfonyl]amino}-6-fluoro-4-(methyloxy)-1H-indazol-1-yl]methyl}phenyl)methyl]-4-methyl-3-morpholinecarboxamide]"
9,3.98 to 15.8,"COc1c(F)ccc2c1c(NS(=O)(=O)c1ccc(Cl)s1)nn2Cc1cccc(CNC(C)=O)c1 [Example 134, N-[(3-{[3-{[(5-Chloro-2-thienyl)sulfonyl]amino}-5-fluoro-4-(methyloxy)-1H-indazol-1-yl]methyl}phenyl)methyl]acetamide]"
10,3.98 to 15.8,"COc1cccc2c1c(NS(=O)(=O)c1ccc(Cl)s1)nn2Cc1cccc(CNC(=O)CCC(=O)O)c1 [Example 138, 4-{[(3-{[3-{[(5-Chloro-2-thienyl)sulfonyl]amino}-4-(methyloxy)-1H-indazol-1-yl]methyl}phenyl)methyl]amino}-4-oxobutanoic acid]"

# Test system: CD4+ CCR4+ T cells
# Assay: Chemokine stimulated increases in cellular F-actin content
# Format: cell-based
# Conditions: Homo sapiens, T-cell, 0.5 h; PBMC from normal volunteers; antagonist 30 min at 37° C. before agonist for 15 sec; F-actin content by flow cytometry; read-out: pA2 (converted)
# Experimental: Chemokine Stimulated Increases in Cellular F-Actin Content
# Blood was taken from normal volunteers who had taken no medication within the previous ten days and mixed with 1/9 of the volume of 3.8% tri-sodium citrate solution. Chemokine-induced increases in the F-actin content of CD4+ CCR4+ T cells were measured by a modification of the method of Pilette et al. (Eur. Respir. J; 23: 876-884, 2004). Peripheral blood mononuclear cells (PBMC) were isolated by dextran sedimentation followed by Percoll density gradient centrifugation. The PBMCs were incubated with FITC-conjugated anti-human CD4 and PE-conjugated anti-CCR4 antibodies or appropriate isotype controls for 15 min. The cell suspensions were then centrifuged at 400 g for 10 min and the pellets resuspended in assay buffer (phenol red-free RPMI 1640 medium containing 10 mM HEPES and 0.1% bovine serum albumin) at 10^7/mL. The resulting cell suspension was incubated with antagonist or vehicle (0.1% DMSO) for 30 min at 37° C. before stimulation with the agonist for 15 sec. The assay was terminated by addition of 3% formaldehyde. The fixed cells were washed twice with PBS (centrifuging at 1000 g for 5 min to recover the cells) and incubated at room temperature with Alexa fluor-647 phalloidin (0.075 U/mL) in the presence of lyso-phosphatidylcholine (93.75 μg/ml) for 20 min to stain F-actin. The cells were washed once more with PBS and the relative F-actin content of the cells was measured flow cytometrically. The mean fluorescence intensity of 1000 CD4^+ CCR4^+ cells per sample was determined and expressed as a fraction of the mean intensity of the CD4^+ CCR4^− cells in that sample.
row,Structure (SMILES),Kb [nM]
1,"COc1cccc2c1c(NS(=O)(=O)c1ccc(Cl)s1)nn2Cc1cccc(CNC(=O)C2CCCO2)c1 (centres unmarked) [Example 89, N-[(3-{[3-{[(5-Chloro-2-thienyl)sulfonyl]amino}-4-(methyloxy)-1H-indazol-1-yl]methyl}phenyl)methyl]tetrahydro-2-furancarboxamide]",≤ 126
2,"COc1cccc2c1c(NS(=O)(=O)c1ccc(Cl)s1)nn2Cc1cccc(CNC(=O)C2COCCN2C)c1 (centres unmarked) [Example 96, N-[(3-{[3-{[(5-Chloro-2-thienyl)sulfonyl]amino}-4-(methyloxy)-1H-indazol-1-yl]methyl}phenyl)methyl]-4-methyl-3-morpholinecarboxamide]",≤ 126
3,"COc1ccc(Cn2nc(NS(=O)(=O)c3ccc(Cl)s3)c3c(OC)cccc32)cc1OCCN(C)C [Example 110, 5-Chloro-N-[1-{[3-{[2-(dimethylamino)ethyl]oxy}-4-(methyloxy)phenyl]methyl}-4-(methyloxy)-1H-indazol-3-yl]-2-thiophenesulfonamide]",≤ 126
4,"O=C(NCc1cccc(Cn2nc(NS(=O)(=O)c3ccc(Cl)s3)c3c(O)cccc32)c1)[C@H]1COCCN1 [Example 111, (3R)—N-({3-[(3-{[(5-chloro-2-thienyl)sulfonyl]amino}-4-hydroxy-1H-indazol-1-yl)methyl]phenyl}methyl)-3-morpholinecarboxamide formate salt]",≤ 126
5,"CNCC(=O)NCc1cccc(Cn2nc(NS(=O)(=O)c3ccc(Cl)s3)c3c(O)cccc32)c1 [Example 112, N^1-({3-[(3-{[(5-chloro-2-thienyl)sulfonyl]amino}-4-hydroxy-1H-indazol-1-yl)methyl]phenyl}methyl)-N^2-methylglycinamide formate salt]",≤ 126
6,"CCNC(=O)NCc1cccc(Cn2nc(NS(=O)(=O)c3ccc(Cl)s3)c3c(OC)cccc32)c1 [Example 113, 5-Chloro-N-[1-{[3-({[(ethylamino)carbonyl]amino}methyl)phenyl]methyl}-4-(methyloxy)-1H-indazol-3-yl]-2-thiophenesulfonamide]",≤ 126
7,"COc1ccc(Cn2nc(NS(=O)(=O)c3ccc(C)s3)c3c(OC)cccc32)cc1OC [Example 118, N-[1-{[3,4-Bis(methyloxy)phenyl]methyl}-4-(methyloxy)-1H-indazol-3-yl]-5-methyl-2-thiophenesulfonamide]",≤ 126
8,"COc1cc(F)cc2c1c(NS(=O)(=O)c1ccc(Cl)s1)nn2Cc1cccc(CNC(C)=O)c1 [Example 129, N-[(3-{[3-{[(5-Chloro-2-thienyl)sulfonyl]amino}-6-fluoro-4-(methyloxy)-1H-indazol-1-yl]methyl}phenyl)methyl]acetamide]",≤ 126
9,"COc1cccc2c1c(NS(=O)(=O)c1ccc(Cl)s1)nn2Cc1cccc(CNC(=O)[C@@H]2CCCN2)c1 [Example 158, N-[(3-{[3-{[(5-Chloro-2-thienyl)sulfonyl]amino}-4-(methyloxy)-1H-indazol-1-yl]methyl}phenyl)methyl]-L-prolinamide trifluoroacetate]",≤ 126
10,"COc1cccc2c1c(NS(=O)(=O)c1ccc(Cl)s1)nn2Cc1cccc(CNC(=O)[C@@H]2CCN2)c1 [Example 159, (2S)—N-[(3-{[3-{[(5-Chloro-2-thienyl)sulfonyl]amino}-4-(methyloxy)-1H-indazol-1-yl]methyl}phenyl)methyl]-2-azetidinecarboxamide trifluoroacetate]",≤ 126
11,"COc1cccc2c1c(NS(=O)(=O)c1ccc(C)s1)nn2Cc1cccc(CNC(=O)[C@H]2COCCN2)c1 [Example 160, (3R)—N-({3-[(4-(Methyloxy)-3-{[(5-methyl-2-thienyl)sulfonyl]amino}-1H-indazol-1-yl)methyl]phenyl}methyl)-3-]",≤ 126
12,"CCN(CC)C(=O)c1ccc(Cn2nc(NS(=O)(=O)c3ccc(Cl)s3)c3c(OC)cccc32)cc1 [Example 163, 4-{[3-{[(5-Chloro-2-thienyl)sulfonyl]amino}-4-(methyloxy)-1H-indazol-1-yl]methyl}-N,N-diethylbenzamide]",> 1000
13,"O=C(NCc1cccc(Cn2nc(NS(=O)(=O)c3ccc(Cl)s3)c3c(O)cccc32)c1)[C@@H]1COCCN1 [Example 166, (3S)—N-({3-[(3-{[(5-Chloro-2-thienyl)sulfonyl]amino}-4-hydroxy-1H-indazol-1-yl)methyl]phenyl}methyl)-3-morpholinecarboxamide formate salt]",≤ 126
